The values that follow come from ChEMBL document CHEMBL5532720, “A Potent Solution for Tumor Growth and Angiogenesis Suppression via an ELR+CXCL-CXCR1/2 Pathway Inhibitor” (ACS Med Chem Lett, 2024).

Structures are written as SMILES.

Common to all, as to assay type: functional, cell-based
For one assay, the system named is A498. Put plainly: Antiproliferative activity against human A498 cells incubated for 48 hrs by XTT assay. The following applies: A498, 48 h.
Assay [1] can be described thus: Antiproliferative activity against human Cisplatin and radiotherapy resistant CAL33RR cells incubated for 48 hrs by XTT assay. In general terms: Tetrazolium assays rely on reduction of a dye to a coloured formazan, in cell work by metabolically active cells.
Assay [2] in a line: Antiproliferative activity against human Cisplatin and radiotherapy resistant CAL27RR cells incubated for 48 hrs by XTT assay.
The next assay has as its system 786-0. Kind of assay: Antiproliferative activity against human 786-0 cells incubated for 48 hrs by XTT assay. To be noted: 786-0, 48 h.
Assay [3] can be described thus: Antiproliferative activity against human Sunitinib-resistant 786-R cells incubated for 48 hrs by XTT assay.
The next assay deals with CAL-27. Kind of assay: Antiproliferative activity against human CAL-27 cells incubated for 48 hrs by XTT assay. To be noted: CAL-27, 48 h.
The subject of a further assay is RCC4. Kind of assay: Antiproliferative activity against human RCC4 cells incubated for 48 hrs by XTT assay. To be noted: RCC4, 48 h.
In a further assay the test system is CAL-33. Kind of assay: Antiproliferative activity against human CAL-33 cells incubated for 48 hrs by XTT assay. The following applies: CAL-33, 48 h.

For orientation: IC50 means the concentration that gives 50% inhibition. `Cc1ccc(NC(=O)Nc2nc3ccc([N+](=O)[O-])cc3s2)cc1`: the IC50 turned out to be 15 µM with A498; 7 µM in assay [1]; 4 µM in assay [2]; 5 µM in the assay on 786-0; 5 µM in assay [3]; 7 µM in the assay with CAL-27. Also, the values for the IC50 in the assay on RCC4 and in the assay with CAL-33 were 10 µM and 7 µM, respectively.
Take `O=C(Nc1cccc(Cl)c1)Nc1nc2ccc(Br)cc2s1`: the 50% inhibitory concentration (IC50) (with A498; in assay [1]; in assay [2]; with 786-0; in assay [3]; with CAL-27) was above 25 µM in each case. The IC50 in the assay on RCC4 and in the assay with CAL-33 was above 25 µM throughout.
Regarding `COc1ccc(NC(=O)Nc2nc3ccc([N+](=O)[O-])cc3s2)cc1`, the IC50 with A498 was 20 µM; in assay [1] it was above 25 µM; in assay [2], above 25 µM; in the assay with 786-0 it was 25 µM; in assay [3] it was 25 µM; in the assay on CAL-27, above 25 µM. Also, the IC50 in the assay with RCC4 was 20 µM; in the assay on CAL-33, above 25 µM.
Take `CCOc1ccc2nc(NC(=O)Nc3cc(Cl)cc(Cl)c3)sc2c1`: the IC50 in the assay on A498 was above 25 µM; in assay [1], above 25 µM; in assay [2], 20 µM; with 786-0, above 25 µM; in assay [3], above 25 µM; in the assay on CAL-27 it was above 25 µM. The IC50 is above 25 µM in the assay on RCC4 and 15 µM with CAL-33.
`O=C(Nc1ccccc1)Nc1nc2ccc([N+](=O)[O-])cc2s1`: the IC50 was found to be 3 µM in the assay with A498; 25 µM in assay [1]; 4 µM in assay [2]; 5 µM with 786-0; 5 µM in assay [3]; 25 µM in the assay with CAL-27. Besides, the IC50 with RCC4 was determined as 5 µM; in the assay on CAL-33, 6 µM.
In the case of `Cn1cc(-c2ccc3nc(NC(=O)Nc4cccc(Cl)c4)sc3c2)cn1`, the concentration for half-maximal inhibition (IC50) was above 10 µM in the assay on A498; above 10 µM in assay [1]; above 10 µM in assay [2]; above 10 µM in the assay on 786-0; above 10 µM in assay [3]; 7 µM in the assay with CAL-27. The IC50 in the assay with RCC4 and in the assay with CAL-33 was above 10 µM in each case.
Turning to `O=C(Nc1cccc(Cl)c1)Nc1nc2cc([N+](=O)[O-])ccc2o1`, the IC50 in the assay on A498 is 25 µM; in assay [1] it was above 25 µM; in assay [2], above 25 µM; with 786-0 it was 25 µM; in assay [3] it was above 25 µM; in the assay on CAL-27, above 25 µM. Moreover, the IC50 in the assay on RCC4 was 25 µM; in the assay with CAL-33, above 25 µM.
As for `CS(=O)(=O)Nc1ccc2nc(NC(=O)Nc3cccc(Cl)c3)sc2c1`, the IC50 (in the assay on A498; in assay [1]; in assay [2]; in the assay on 786-0; in assay [3]; in the assay on CAL-27) was above 25 µM each time. For the same compound, the IC50 in the assay with RCC4 and with CAL-33 was above 25 µM throughout.
Turning to `Cc1ccc(NC(=O)Nc2nc3ccc([N+](=O)[O-])cc3o2)cc1`, the IC50 in the assay on A498 came to 9 µM; in assay [1] it was 20 µM; in assay [2], 20 µM; in the assay on 786-0 it was 4 µM; in assay [3], 25 µM; with CAL-27 it was 25 µM. The IC50 is 2 µM in the assay on RCC4 and 15 µM in the assay with CAL-33.
Take `O=C(Nc1cccc(Cl)c1)Nc1nc2cc([N+](=O)[O-])ccc2[nH]1`: the IC50 with A498 amounted to 8 µM; in assay [1] it was 25 µM; in assay [2] it was 10 µM; with 786-0 it was 4 µM; in assay [3], 4 µM; in the assay with CAL-27, 25 µM. In addition, the IC50 was 3 µM in the assay on RCC4 and 15 µM in the assay with CAL-33.
With `Nc1ccc2nc(NC(=O)Nc3cccc(Cl)c3)sc2c1`, the IC50 is 20 µM in the assay on A498; above 25 µM in assay [1]; 20 µM in assay [2]; 20 µM in the assay with 786-0; above 25 µM in assay [3]; above 25 µM in the assay on CAL-27. Besides, the IC50 in the assay with RCC4 is 20 µM; in the assay with CAL-33 it was above 25 µM.
